Measured values as given in US20160374975A1, “COMPOSITION FOR TREATMENT OF NAFLD” (Pronova BioPharma Norge AS, priority 2015, published 2016).

Key:
male C57BL6/J mice = conditions: PCB 153 exposure in high-fat-fed mice; not seen with HFD alone or PCB 153 alone; cited from earlier work
HepG2 cells = assay: Intracellular lipid accumulation in steatic HepG2 cells (in vitro model of NAFLD), oil red O staining, OD 490 nm; assay type: cell-based, human; conditions: steatic HepG2 cells treated with EPA/DHA, PCB 153 final concentration 50 μM, 24 hours at 37° C., versus DMSO alone
Protocol: Palmitic (C16:0) and oleic (C18:1) acids are the most abundant fatty acids in liver triglycerides in both normal subjects and patients with NAFLD. The human hepatocyte-derived cell line HepG2 cells were seeded in a 96 well plate at a density of 5000 cells/well on Day 1. […] Intracellular accumulation of lipids was detected and quantified by oil red O staining using spectrophotometry at wavelength 490 nm. Oil red O color intracellular lipids droplets after cell fixation with paraformaldehyde. Absence of cell death was confirmed using a colometric lactate dehydrogenase (LDH) assay. Lactate dehydrogenase (LDH) is a cytosolic enzyme present in many different types of cells. When the plasma membrane is damaged, LDH is released into cell culture media. The released LDH was quantified by a coupled enzymatic reaction using a LDH cytotoxicity kit, and following the procedure according to the manufacture's instruction.
To assess the effect of n-3 PUFA on experimental NAFLD, the HepG2cells were treated with EPA and DHA at a concentration of 100 μM (1:1), or with fatty acids-free bovine serum albumin (BSA), as a control, together with 1 mM Oleic/Palmitic acid for 24 hours. […] Intracellular accumulation of lipids was detected and quantified by oil red O staining using spectrophotometry at wavelength 490 nm. […]

mice = conditions: HFD+PCB 153 treated mice compared with HFD treatment alone; cited from earlier work

Q: Which results are given for `Clc1cc(Cl)c(-c2cc(Cl)c(Cl)cc2Cl)cc1Cl` [PCB 153, polychlorinated biphenyl 153]?
A: Visceral adiposity, hepatic steatosis, and plasma adipokines (male C57BL6/J mice): increased; Effect on the benefit of n-3 PUFA (EPA/DHA) on development of steatosis (intracellular lipids, oil red O) (HepG2 cells): diminish the beneficial effect; Reduction of hepatic glutathione (mice): 6 fold
